Source: patent US12139520B2 (priority 2020, dated 2024)
Numbered stars: 1 amine (or outer) side, 2 acyl side, 3 side chain; on linkers, the order of the positions; unused ones are H or OH. Bridge positions count the residues as written; N and C are the ends. Square brackets hold non-standard residues; d marks the D form. Peptide text beside a SMILES is read from it. * marks the point of attachment. C20 diacid = O=C(O)CCCCCCCCCCCCCCCCCCC(=O)*; γGlu = O=C(O)[C@H](CCC(=O)[*:2])N[*:1]; Hyp = O=C(O)[C@@H]1C[C@@H](O)CN1

How the values were obtained:
hAM1 receptor = hAM1 receptor (Homo sapiens, UniProt O60895+Q16602); experiment: cAMP assay for in vitro receptor activation, hAM1-R; type: cell-based; settings: cAMP assay, hAM1 receptor; read-out: hAM1R EC50
hAM1 receptor, sequence (Q16602 23-461): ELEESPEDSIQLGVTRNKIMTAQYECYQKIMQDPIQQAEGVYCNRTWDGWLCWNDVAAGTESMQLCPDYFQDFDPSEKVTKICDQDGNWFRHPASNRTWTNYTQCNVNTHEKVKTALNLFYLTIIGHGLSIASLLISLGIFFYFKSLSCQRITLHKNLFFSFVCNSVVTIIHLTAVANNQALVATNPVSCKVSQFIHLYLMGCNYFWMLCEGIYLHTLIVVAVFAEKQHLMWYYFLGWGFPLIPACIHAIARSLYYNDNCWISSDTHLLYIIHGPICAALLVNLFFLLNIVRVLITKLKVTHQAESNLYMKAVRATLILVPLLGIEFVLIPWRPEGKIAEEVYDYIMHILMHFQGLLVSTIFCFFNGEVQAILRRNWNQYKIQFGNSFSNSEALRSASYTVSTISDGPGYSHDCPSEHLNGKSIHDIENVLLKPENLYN
hAM1 receptor, sequence (O60895 43-175 partner): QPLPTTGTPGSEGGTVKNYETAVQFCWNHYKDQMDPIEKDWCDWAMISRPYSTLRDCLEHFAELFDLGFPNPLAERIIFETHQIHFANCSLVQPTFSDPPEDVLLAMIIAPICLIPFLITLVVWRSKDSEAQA
Description: General Protocols for cAMP Assays for Measuring In Vitro Receptor Activation
Cells stably overexpressing the hAM1 receptor were obtained from Ogeda (now Astellas Pharma), sub-cloned and a monoclonal cell-line with an appropriate assay-window was expanded, aliquoted and frozen. An aliquot was thawed and plated in DPBS with 0.05% casein and 0.5 mM IBMX as 8000 cells/well in a 384-well format.

hAMY3 receptor = molecular target: T1, hAMY3 receptor (Homo sapiens, UniProt O60896+P30988); experiment: cAMP assay for in vitro receptor activation, hAMY3-R; type: cell-based; settings: cAMP assay, hAMY3 receptor; read-out: hAMY3R EC50
T1 sequence (P30988 25-474): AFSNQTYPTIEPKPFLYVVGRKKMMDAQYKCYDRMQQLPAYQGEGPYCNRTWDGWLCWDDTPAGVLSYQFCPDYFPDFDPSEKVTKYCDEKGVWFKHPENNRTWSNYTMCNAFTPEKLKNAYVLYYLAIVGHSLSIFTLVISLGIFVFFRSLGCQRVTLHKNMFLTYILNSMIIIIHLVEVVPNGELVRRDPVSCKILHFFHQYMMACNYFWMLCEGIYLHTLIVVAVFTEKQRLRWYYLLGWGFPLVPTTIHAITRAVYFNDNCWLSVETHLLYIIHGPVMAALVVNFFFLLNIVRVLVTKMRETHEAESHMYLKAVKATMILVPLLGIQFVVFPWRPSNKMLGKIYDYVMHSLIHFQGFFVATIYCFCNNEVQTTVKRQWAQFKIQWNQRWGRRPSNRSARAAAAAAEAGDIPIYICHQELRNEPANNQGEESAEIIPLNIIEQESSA
T1 sequence (O60896 24-148 partner): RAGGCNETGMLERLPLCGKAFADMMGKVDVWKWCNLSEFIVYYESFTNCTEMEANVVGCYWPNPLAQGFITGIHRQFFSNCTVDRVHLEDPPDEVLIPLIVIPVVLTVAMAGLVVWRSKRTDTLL
How it was run: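 Thawed cells from a sub-cloned monoclonal hAMY3-overexpressing line are plated in DPBS containing 0.05% casein and 0.5 mM IBMX. Test compounds are added immediately at graded doses for 30 min at room temperature. Reagents for cAMP detection are then added, and TR-FRET is recorded after one hour.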

[1] = Physical stability of peptide analogues (Thioflavin T fibrillation); type: physicochemical; settings: maximum ThT signal normalized between hAMY maximum and buffer background; 40° C., shaking, four days; pH 7 per table title
How it was run: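 Maximum ThT emission at 480 nm, after LOESS smoothing, is given as percent of the span from buffer background to hAMY. Conditions: 50 mM buffer at pH 4 or 7, 4 μM dye, 40 °C, repeated shaking, readings every 10 min for four days.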

Compound `CC[C@H](C)[C@H](NC(=O)[C@H](C)NC(=O)CNC(=O)[C@H](Cc1ccccc1)NC(=O)[C@H](CC(N)=O)NC(=O)[C@H](CC(N)=O)NC(=O)[C@H](CO)NC(=O)[C@H](CO)NC(=O)[C@H](Cc1c[nH]cn1)NC(=O)[C@@H](NC(=O)[C@H](CC(C)C)NC(=O)[C@H](Cc1ccccc1)NC(=O)[C@H](CC(N)=O)NC(=O)[C@H](C)NC(=O)[C@H](CC(C)C)NC(=O)[C@H](CCCNC(=N)N)NC(=O)[C@H](CCC(N)=O)NC(=O)[C@@H](NC(=O)[C@H](C)NC(=O)[C@@H]1CSSC[C@H](NC(=O)[C@@H](N)CCCCN)C(=O)N[C@@H](CC(N)=O)C(=O)N[C@@H]([C@@H](C)O)C(=O)N[C@@H](C)C(=O)N[C@@H]([C@@H](C)O)C(=O)N1)[C@@H](C)O)C(C)C)C(=O)N[C@@H](CC(C)C)C(=O)N1CCC[C@H]1C(=O)N[C@@H](CO)C(=O)N[C@H](C(=O)N[C@@H](CCCCN)C(=O)N[C@H](C(=O)NCC(=O)N[C@@H](CO)C(=O)N[C@@H](CC(N)=O)C(=O)NCC(=O)N[C@@H](Cc1ccc(O)cc1)C(N)=O)[C@@H](C)CC)[C@@H](C)O` [compound 207] (H-KCNTATCATQRLANFLVHSSNNFGAILPSTKIGSNGY-NH2; disulfide 2-7; N-terminus assumed) has an EC50 (hAM1 receptor) of over 5000 nM.

With `CC[C@H](C)[C@H](NC(=O)[C@H](CCC(N)=O)NC(=O)[C@H](Cc1c[nH]cn1)NC(=O)[C@H](C)NC(=O)[C@H](CC(C)C)NC(=O)[C@H](CCCNC(=N)N)NC(=O)[C@H](CCC(N)=O)NC(=O)[C@@H](NC(=O)[C@@H](NC(=O)[C@@H]1CSSC[C@H](NC(=O)[C@H](CCCCN)NC(=O)CC[C@H](NC(=O)CCCCCCCCCCCCCCCCCCC(=O)O)C(=O)O)C(=O)N[C@@H](CC(N)=O)C(=O)N[C@@H]([C@@H](C)O)C(=O)N[C@@H](Cc2ccc(O)cc2)C(=O)N[C@@H]([C@@H](C)O)C(=O)N1)[C@@H](C)O)C(C)C)C(=O)N[C@@H](Cc1ccc(O)cc1)C(=O)N[C@@H](CCC(N)=O)C(=O)N[C@@H](Cc1ccccc1)C(=O)N[C@H](C(=O)N[C@@H](CC(=O)O)C(=O)N[C@@H](CCCCN)C(=O)N[C@@H](CC(=O)O)C(=O)N[C@@H](CCCCN)C(=O)N[C@@H](CC(=O)O)C(=O)N[C@@H](CC(N)=O)C(=O)N[C@H](C(=O)N[C@@H](C)C(=O)N1CCC[C@H]1C(=O)N1CCC[C@H]1C(=O)N[C@H](C(=O)N[C@@H](CC(N)=O)C(=O)N[C@H](C(=O)NCC(=O)N[C@@H](CO)C(=O)N[C@@H](CC(N)=O)C(=O)NCC(=O)N1C[C@H](O)C[C@H]1C(N)=O)C(C)C)[C@@H](C)O)C(C)C)[C@@H](C)O` [compound 231] ({C20 diacid-γGlu}-KCNTYTCTVQRLAHQIYQFTDKDKDNVAPPTNVGSNG[Hyp]-NH2; disulfide 2-7) the EC50 (hAM1 receptor) was over 5000 nM.

`CC[C@H](C)[C@H](NC(=O)[C@H](CCCCN)NC(=O)[C@H](CO)NC(=O)[C@H](CCCNC(=N)N)NC(=O)[C@@H]1CCCN1C(=O)[C@H](C)NC(=O)[C@@H](NC(=O)[C@H](CC(N)=O)NC(=O)[C@H](CC(=O)O)NC(=O)[C@H](CCCCN)NC(=O)[C@H](CC(=O)O)NC(=O)[C@H](CCCCN)NC(=O)[C@H](CC(=O)O)NC(=O)[C@@H](NC(=O)[C@H](Cc1ccccc1)NC(=O)[C@H](CCC(N)=O)NC(=O)[C@@H](NC(=O)[C@H](CC(C)C)NC(=O)[C@H](Cc1ccccc1)NC(=O)[C@H](CC(N)=O)NC(=O)[C@H](C)NC(=O)[C@H](CC(C)C)NC(=O)[C@H](CCCNC(=N)N)NC(=O)[C@H](CCC(N)=O)NC(=O)[C@@H](NC(=O)[C@H](C)NC(=O)[C@@H]1CSSC[C@H](NC(=O)[C@@H](N)CCCCN)C(=O)N[C@@H](CC(N)=O)C(=O)N[C@@H]([C@@H](C)O)C(=O)N[C@@H](C)C(=O)N[C@@H]([C@@H](C)O)C(=O)N1)[C@@H](C)O)C(C)C)[C@@H](C)O)C(C)C)C(=O)N[C@@H](CO)C(=O)N1CCC[C@H]1C(=O)N[C@@H](CCC(N)=O)C(=O)NCC(=O)N[C@@H](Cc1ccc(O)cc1)C(N)=O` [compound 234] (H-KCNTATCATQRLANFLVQFTDKDKDNVAPRSKISPQGY-NH2; disulfide 2-7; N-terminus assumed) gave an EC50 (hAM1 receptor) of over 5000 nM.

With `CC[C@H](C)[C@H](NC(=O)[C@H](CCC(N)=O)NC(=O)[C@H](Cc1c[nH]cn1)NC(=O)[C@H](C)NC(=O)[C@H](CC(C)C)NC(=O)[C@H](CCCNC(=N)N)NC(=O)[C@H](CCC(N)=O)NC(=O)[C@@H](NC(=O)[C@@H](NC(=O)[C@@H]1CSSC[C@H](NC(=O)CN)C(=O)N[C@@H](CCCNC(=N)N)C(=O)N[C@@H](Cc2ccccc2)C(=O)NCC(=O)N[C@@H]([C@@H](C)O)C(=O)N1)[C@@H](C)O)C(C)C)C(=O)N[C@@H](Cc1ccc(O)cc1)C(=O)N[C@@H](CCC(N)=O)C(=O)N[C@@H](Cc1ccccc1)C(=O)N[C@H](C(=O)N[C@@H](CC(=O)O)C(=O)N[C@@H](CCCCN)C(=O)N[C@@H](CC(=O)O)C(=O)N[C@@H](CCCCN)C(=O)N[C@@H](CC(=O)O)C(=O)N[C@@H](CC(N)=O)C(=O)N[C@H](C(=O)N[C@@H](C)C(=O)N1CCC[C@H]1C(=O)N[C@@H](CCCNC(=N)N)C(=O)N[C@H](C(=O)N[C@@H](CCCCN)C(=O)N[C@H](C(=O)N[C@@H](CO)C(=O)N1CCC[C@H]1C(=O)N[C@@H](CC(N)=O)C(=O)NCC(=O)N[C@@H](Cc1ccc(O)cc1)C(N)=O)C(C)C)[C@@H](C)O)C(C)C)[C@@H](C)O` [compound 385] (H-GCRFGTCTVQRLAHQIYQFTDKDKDNVAPRTKVSPNGY-NH2; disulfide 2-7; N-terminus assumed) the EC50 (hAMY3 receptor) was 0.036 nM and the “Max ThT signal (%)” value [1] was 8.800%.

For `CC[C@H](C)[C@H](NC(=O)[C@H](CCCCN)NC(=O)[C@H](CO)NC(=O)[C@H](CCCNC(=N)N)NC(=O)[C@@H]1CCCN1C(=O)[C@H](C)NC(=O)[C@@H](NC(=O)[C@H](CC(N)=O)NC(=O)[C@H](CC(=O)O)NC(=O)[C@H](CCCCN)NC(=O)[C@H](CC(=O)O)NC(=O)[C@H](CCCCN)NC(=O)[C@H](CC(=O)O)NC(=O)[C@@H](NC(=O)[C@H](Cc1ccccc1)NC(=O)[C@H](CCC(N)=O)NC(=O)[C@H](Cc1ccc(O)cc1)NC(=O)[C@@H](NC(=O)[C@H](CCC(N)=O)NC(=O)[C@H](Cc1c[nH]cn1)NC(=O)[C@H](C)NC(=O)[C@H](CC(C)C)NC(=O)[C@H](CCCNC(=N)N)NC(=O)[C@H](CCC(N)=O)NC(=O)[C@@H](NC(=O)[C@@H](NC(=O)[C@@H]1CSSC[C@H](NC(=O)CN)C(=O)N[C@@H](CCCNC(=N)N)C(=O)N[C@@H](Cc2ccccc2)C(=O)NCC(=O)N[C@@H]([C@@H](C)O)C(=O)N1)[C@@H](C)O)C(C)C)[C@@H](C)CC)[C@@H](C)O)C(C)C)C(=O)NCC(=O)N1CCC[C@H]1C(=O)N[C@@H](CCC(N)=O)C(=O)NCC(=O)N[C@@H](Cc1ccc(O)cc1)C(N)=O` [compound 387] (H-GCRFGTCTVQRLAHQIYQFTDKDKDNVAPRSKIGPQGY-NH2; disulfide 2-7; N-terminus assumed), the EC50 (hAMY3 receptor) was 0.04 nM and the “Max ThT signal (%)” value [1] was 14.300%.

With `CC[C@H](C)[C@H](NC(=O)[C@H](CCCCN)NC(=O)[C@@H](NC(=O)[C@H](CCCNC(=N)N)NC(=O)[C@@H]1CCCN1C(=O)[C@H](C)NC(=O)[C@@H](NC(=O)[C@H](CC(N)=O)NC(=O)[C@H](CC(=O)O)NC(=O)[C@H](CCCCN)NC(=O)[C@H](CC(=O)O)NC(=O)[C@H](CCCCN)NC(=O)[C@H](CC(=O)O)NC(=O)[C@@H](NC(=O)[C@H](Cc1ccccc1)NC(=O)[C@H](CCC(N)=O)NC(=O)[C@H](Cc1ccc(O)cc1)NC(=O)[C@@H](NC(=O)[C@H](CCC(N)=O)NC(=O)[C@H](Cc1c[nH]cn1)NC(=O)[C@H](C)NC(=O)[C@H](CC(C)C)NC(=O)[C@H](CCCNC(=N)N)NC(=O)[C@H](CCC(N)=O)NC(=O)[C@@H](NC(=O)[C@@H](NC(=O)[C@@H]1CSSC[C@H](NC(=O)CN)C(=O)N[C@@H](CCCNC(=N)N)C(=O)N[C@@H](Cc2ccccc2)C(=O)NCC(=O)N[C@@H]([C@@H](C)O)C(=O)N1)[C@@H](C)O)C(C)C)[C@@H](C)CC)[C@@H](C)O)C(C)C)[C@@H](C)O)C(=O)NCC(=O)N1CCC[C@H]1C(=O)N[C@@H](CCC(N)=O)C(=O)NCC(=O)N[C@@H](Cc1ccc(O)cc1)C(N)=O` [compound 391] (H-GCRFGTCTVQRLAHQIYQFTDKDKDNVAPRTKIGPQGY-NH2; disulfide 2-7; N-terminus assumed) the EC50 (hAMY3 receptor) was 0.068 nM and the “Max ThT signal (%)” value [1] was 3.700%.
